In ChEMBL document CHEMBL3867472, “Discovery of benzofuran propanoic acid GPR120 agonists: From uHTS hit to mechanism-based pharmacodynamic effects” (Bioorg Med Chem Lett, 2016):
Calls of active or inactive are those of the source. The rule behind the calls is not given here.

Columns and labels:
[1] = molecular target: T1, Free fatty acid receptor 4 (Homo sapiens, UniProt Q5NUL3); assay: Agonist activity at human GPR120 expressed in CHOK1 cells measured after 60 mins by IP1-HTRF assay; format: functional, cell-based, CHO-K1
T1 sequence (Q5NUL3 whole entry): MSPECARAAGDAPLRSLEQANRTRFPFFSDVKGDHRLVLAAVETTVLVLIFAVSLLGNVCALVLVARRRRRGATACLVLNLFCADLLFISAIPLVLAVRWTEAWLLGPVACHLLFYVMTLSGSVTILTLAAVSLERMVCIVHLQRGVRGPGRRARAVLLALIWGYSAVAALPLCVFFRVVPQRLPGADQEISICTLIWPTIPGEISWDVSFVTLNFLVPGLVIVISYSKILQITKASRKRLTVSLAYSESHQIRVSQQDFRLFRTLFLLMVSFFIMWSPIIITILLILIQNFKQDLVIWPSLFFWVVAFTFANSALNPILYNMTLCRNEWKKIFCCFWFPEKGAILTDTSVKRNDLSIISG

[2] = molecular target: T2, Free fatty acid receptor 4 (Homo sapiens) (UniProt Q5NUL3); assay: Agonist activity at human GPR120 expressed in CHOK1 cells measured after 60 mins by IP1-HTRF assay relative to basal level; format: functional, cell-based; parameters: concentration or dose not given beside the values; settings: CHO-K1
T2 sequence (whole entry): T1 sequence (Q5NUL3 whole entry)

[3] = molecular target: T3, Free fatty acid receptor 4 (Mus musculus, UniProt Q7TMA4); assay: Agonist activity at mouse GPR120 expressed in CHOK1 cells measured after 60 mins by IP1-HTRF assay; format: functional, cell-based, CHO-K1
T3 sequence (Q7TMA4 whole entry): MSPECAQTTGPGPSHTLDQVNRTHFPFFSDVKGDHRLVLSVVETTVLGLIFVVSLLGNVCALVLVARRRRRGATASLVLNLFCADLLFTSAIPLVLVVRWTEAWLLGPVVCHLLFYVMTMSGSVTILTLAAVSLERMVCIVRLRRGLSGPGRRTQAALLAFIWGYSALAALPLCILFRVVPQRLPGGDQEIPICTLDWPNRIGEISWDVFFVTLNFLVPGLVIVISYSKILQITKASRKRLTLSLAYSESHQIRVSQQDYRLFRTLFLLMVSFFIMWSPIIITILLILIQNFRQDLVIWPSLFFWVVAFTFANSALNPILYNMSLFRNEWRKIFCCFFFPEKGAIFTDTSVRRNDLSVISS

[4] = molecular target: T4, Free fatty acid receptor 4 (Mus musculus) (UniProt Q7TMA4); assay: Agonist activity at mouse GPR120 expressed in CHOK1 cells measured after 60 mins by IP1-HTRF assay relative to basal level; format: functional, cell-based; parameters: concentration or dose not given beside the values; settings: CHO-K1
T4 sequence (whole entry): T3 sequence (Q7TMA4 whole entry)

[5] = molecular target: T5, Free fatty acid receptor 1 (Homo sapiens, UniProt O14842); assay: Agonist activity at human GPR40 measured after 60 mins by IP1-HTRF assay; format: functional
[6] = molecular target: Voltage-dependent L-type calcium channel subunit alpha-1C (Homo sapiens, UniProt Q13936); assay: Inhibition of Cav1.2 (unknown origin)
[7] = molecular target: Sodium channel protein type 5 subunit alpha (Homo sapiens, UniProt Q14524); assay: Inhibition of Nav1.5 (unknown origin)
Cytochrome P450 3A4 = Cytochrome P450 3A4 (Homo sapiens, UniProt P08684); assay: Inhibition of CYP3A4 (unknown origin); format: ADME
Cytochrome P450 2D6 = Cytochrome P450 2D6 (Homo sapiens, UniProt P10635); assay: Inhibition of CYP2D6 (unknown origin); format: ADME
Cytochrome P450 2C9 = Cytochrome P450 2C9 (Homo sapiens, UniProt P11712); assay: Inhibition of CYP2C9 (unknown origin); format: ADME
[8] = Clearance in mouse at 2 mg/kg, iv or 10 mg/kg, po; format: ADME, organism-based; settings: in vivo
[9] = Volume of distribution in mouse at 2 mg/kg, iv or 10 mg/kg, po; format: ADME, organism-based; settings: in vivo
[10] = Half life in mouse at 2 mg/kg, iv or 10 mg/kg, po; format: ADME, organism-based; settings: in vivo
[11] = Oral bioavailability in mouse at 10 mg/kg; format: ADME, organism-based; settings: in vivo
[12] = Cmax in mouse at 2 mg/kg, iv or 10 mg/kg, po; format: ADME, organism-based; settings: in vivo
[13] = Protein binding in mouse plasma; format: ADME, cell-free; settings: read-out: PPB (converted)
[14] = molecular target: T5, Free fatty acid receptor 1; assay: Agonist activity at human GPR40 measured after 60 mins by IP1-HTRF assay relative to basal level; format: functional; parameters: concentration or dose not given beside the values
[15] = Antidiabetic activity in wild-type mouse assessed as reduction in glucose excursion at 30 and 100 mg/kg, po by oral glucose tolerance test; format: functional, organism-based
Mus musculus [16] = assay: Reduction of glucose excursion in GPR120 knockout mouse at 30 and 100 mg/kg, po by oral glucose tolerance test; format: functional, organism-based
[17] = Drug uptake in GPR120 knockout mouse blood at 30 mg/kg, po; format: ADME, organism-based; settings: in vivo, read-out: Drug uptake
[18] = Drug uptake in GPR120 knockout mouse blood at 100 mg/kg, po; format: ADME, organism-based; settings: in vivo, read-out: Drug uptake
[19] = Drug uptake in wild-type mouse blood at 30 mg/kg, po; format: ADME, organism-based; settings: in vivo, read-out: Drug uptake
[20] = Drug uptake in wild-type mouse blood at 100 mg/kg, po; format: ADME, organism-based; settings: in vivo, read-out: Drug uptake
Mus musculus [21] = assay: In vivo agonist activity at GPR120 in wild-type mouse assessed as target engagement at 30 mg/kg, po; format: functional
Mus musculus [22] = assay: In vivo agonist activity at GPR120 in wild-type mouse assessed as target engagement at 100 mg/kg, po; format: functional
[23] = molecular target: Voltage-gated inwardly rectifying potassium channel KCNH2 (Homo sapiens, UniProt Q12809)
[24] = molecular target: T2, Free fatty acid receptor 4 (Homo sapiens); assay: Agonist activity at human GPR120 expressed in CHO-NFAT cells assessed as increase in calcium efflux at 5 uM by Fluo-4 dye-based FLIPR assay; format: functional, cell-based
CHO-K1 = assay: Effect on calcium efflux in CHOK1 cells at 5 uM by Fluo-4 dye-based FLIPR assay; format: functional, Cricetulus griseus
[25] = molecular target: T2, Free fatty acid receptor 4 (Homo sapiens); assay: Agonist activity at GPR120 (unknown origin) at 5 uM by PathHunter cell based assay

Sequence of Cytochrome P450 2D6 (P10635 whole entry): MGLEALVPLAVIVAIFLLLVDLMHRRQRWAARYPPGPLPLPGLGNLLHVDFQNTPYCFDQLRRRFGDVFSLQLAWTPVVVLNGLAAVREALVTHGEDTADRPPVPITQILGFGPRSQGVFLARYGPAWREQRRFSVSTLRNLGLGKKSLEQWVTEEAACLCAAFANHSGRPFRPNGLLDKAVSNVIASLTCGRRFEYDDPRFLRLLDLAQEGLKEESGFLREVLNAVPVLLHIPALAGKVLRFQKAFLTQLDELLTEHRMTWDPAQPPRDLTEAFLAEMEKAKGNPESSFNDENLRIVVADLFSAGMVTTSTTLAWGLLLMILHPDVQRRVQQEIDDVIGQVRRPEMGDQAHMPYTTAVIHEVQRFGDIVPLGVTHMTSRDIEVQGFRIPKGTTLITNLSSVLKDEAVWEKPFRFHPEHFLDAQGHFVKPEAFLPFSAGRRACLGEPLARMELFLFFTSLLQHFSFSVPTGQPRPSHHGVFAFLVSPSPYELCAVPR
T5 sequence (O14842 whole entry): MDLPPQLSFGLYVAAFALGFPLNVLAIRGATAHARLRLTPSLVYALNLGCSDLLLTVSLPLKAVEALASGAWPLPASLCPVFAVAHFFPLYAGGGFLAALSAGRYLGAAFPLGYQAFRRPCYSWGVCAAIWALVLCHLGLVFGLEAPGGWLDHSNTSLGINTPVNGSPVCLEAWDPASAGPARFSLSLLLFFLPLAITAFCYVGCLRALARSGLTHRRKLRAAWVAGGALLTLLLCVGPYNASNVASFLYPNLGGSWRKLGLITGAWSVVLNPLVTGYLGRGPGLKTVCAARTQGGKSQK
Sequence of Cytochrome P450 3A4 (P08684 whole entry): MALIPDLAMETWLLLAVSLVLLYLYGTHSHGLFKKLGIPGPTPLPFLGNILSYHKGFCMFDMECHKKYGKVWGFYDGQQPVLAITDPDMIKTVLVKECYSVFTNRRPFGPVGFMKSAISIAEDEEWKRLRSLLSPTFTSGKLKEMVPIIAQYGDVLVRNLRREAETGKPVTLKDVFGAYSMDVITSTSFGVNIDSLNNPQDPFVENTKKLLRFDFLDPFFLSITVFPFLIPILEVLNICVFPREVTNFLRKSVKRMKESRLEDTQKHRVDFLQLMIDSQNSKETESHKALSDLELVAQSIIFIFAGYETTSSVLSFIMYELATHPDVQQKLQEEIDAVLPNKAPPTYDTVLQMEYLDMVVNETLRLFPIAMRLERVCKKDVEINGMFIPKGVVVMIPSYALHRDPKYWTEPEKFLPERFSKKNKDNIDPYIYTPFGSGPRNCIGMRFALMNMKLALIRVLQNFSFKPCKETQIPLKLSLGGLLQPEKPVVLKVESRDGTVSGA
Sequence of Cytochrome P450 2C9 (P11712 whole entry): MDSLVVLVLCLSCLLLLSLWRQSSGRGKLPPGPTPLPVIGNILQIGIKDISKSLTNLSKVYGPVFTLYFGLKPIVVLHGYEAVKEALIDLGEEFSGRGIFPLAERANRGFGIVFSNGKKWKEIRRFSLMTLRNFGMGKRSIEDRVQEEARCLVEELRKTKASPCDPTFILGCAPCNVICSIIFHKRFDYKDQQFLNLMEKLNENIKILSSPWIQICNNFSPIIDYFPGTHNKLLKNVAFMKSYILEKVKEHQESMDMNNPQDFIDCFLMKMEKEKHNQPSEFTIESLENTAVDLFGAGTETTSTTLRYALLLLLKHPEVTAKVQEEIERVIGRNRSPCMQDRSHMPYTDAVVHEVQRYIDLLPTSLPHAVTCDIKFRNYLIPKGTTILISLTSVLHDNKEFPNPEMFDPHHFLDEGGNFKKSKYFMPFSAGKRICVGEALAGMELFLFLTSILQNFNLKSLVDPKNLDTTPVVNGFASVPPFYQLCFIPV
Sequence of Voltage-dependent L-type calcium channel subunit alpha-1C (Q13936 whole entry): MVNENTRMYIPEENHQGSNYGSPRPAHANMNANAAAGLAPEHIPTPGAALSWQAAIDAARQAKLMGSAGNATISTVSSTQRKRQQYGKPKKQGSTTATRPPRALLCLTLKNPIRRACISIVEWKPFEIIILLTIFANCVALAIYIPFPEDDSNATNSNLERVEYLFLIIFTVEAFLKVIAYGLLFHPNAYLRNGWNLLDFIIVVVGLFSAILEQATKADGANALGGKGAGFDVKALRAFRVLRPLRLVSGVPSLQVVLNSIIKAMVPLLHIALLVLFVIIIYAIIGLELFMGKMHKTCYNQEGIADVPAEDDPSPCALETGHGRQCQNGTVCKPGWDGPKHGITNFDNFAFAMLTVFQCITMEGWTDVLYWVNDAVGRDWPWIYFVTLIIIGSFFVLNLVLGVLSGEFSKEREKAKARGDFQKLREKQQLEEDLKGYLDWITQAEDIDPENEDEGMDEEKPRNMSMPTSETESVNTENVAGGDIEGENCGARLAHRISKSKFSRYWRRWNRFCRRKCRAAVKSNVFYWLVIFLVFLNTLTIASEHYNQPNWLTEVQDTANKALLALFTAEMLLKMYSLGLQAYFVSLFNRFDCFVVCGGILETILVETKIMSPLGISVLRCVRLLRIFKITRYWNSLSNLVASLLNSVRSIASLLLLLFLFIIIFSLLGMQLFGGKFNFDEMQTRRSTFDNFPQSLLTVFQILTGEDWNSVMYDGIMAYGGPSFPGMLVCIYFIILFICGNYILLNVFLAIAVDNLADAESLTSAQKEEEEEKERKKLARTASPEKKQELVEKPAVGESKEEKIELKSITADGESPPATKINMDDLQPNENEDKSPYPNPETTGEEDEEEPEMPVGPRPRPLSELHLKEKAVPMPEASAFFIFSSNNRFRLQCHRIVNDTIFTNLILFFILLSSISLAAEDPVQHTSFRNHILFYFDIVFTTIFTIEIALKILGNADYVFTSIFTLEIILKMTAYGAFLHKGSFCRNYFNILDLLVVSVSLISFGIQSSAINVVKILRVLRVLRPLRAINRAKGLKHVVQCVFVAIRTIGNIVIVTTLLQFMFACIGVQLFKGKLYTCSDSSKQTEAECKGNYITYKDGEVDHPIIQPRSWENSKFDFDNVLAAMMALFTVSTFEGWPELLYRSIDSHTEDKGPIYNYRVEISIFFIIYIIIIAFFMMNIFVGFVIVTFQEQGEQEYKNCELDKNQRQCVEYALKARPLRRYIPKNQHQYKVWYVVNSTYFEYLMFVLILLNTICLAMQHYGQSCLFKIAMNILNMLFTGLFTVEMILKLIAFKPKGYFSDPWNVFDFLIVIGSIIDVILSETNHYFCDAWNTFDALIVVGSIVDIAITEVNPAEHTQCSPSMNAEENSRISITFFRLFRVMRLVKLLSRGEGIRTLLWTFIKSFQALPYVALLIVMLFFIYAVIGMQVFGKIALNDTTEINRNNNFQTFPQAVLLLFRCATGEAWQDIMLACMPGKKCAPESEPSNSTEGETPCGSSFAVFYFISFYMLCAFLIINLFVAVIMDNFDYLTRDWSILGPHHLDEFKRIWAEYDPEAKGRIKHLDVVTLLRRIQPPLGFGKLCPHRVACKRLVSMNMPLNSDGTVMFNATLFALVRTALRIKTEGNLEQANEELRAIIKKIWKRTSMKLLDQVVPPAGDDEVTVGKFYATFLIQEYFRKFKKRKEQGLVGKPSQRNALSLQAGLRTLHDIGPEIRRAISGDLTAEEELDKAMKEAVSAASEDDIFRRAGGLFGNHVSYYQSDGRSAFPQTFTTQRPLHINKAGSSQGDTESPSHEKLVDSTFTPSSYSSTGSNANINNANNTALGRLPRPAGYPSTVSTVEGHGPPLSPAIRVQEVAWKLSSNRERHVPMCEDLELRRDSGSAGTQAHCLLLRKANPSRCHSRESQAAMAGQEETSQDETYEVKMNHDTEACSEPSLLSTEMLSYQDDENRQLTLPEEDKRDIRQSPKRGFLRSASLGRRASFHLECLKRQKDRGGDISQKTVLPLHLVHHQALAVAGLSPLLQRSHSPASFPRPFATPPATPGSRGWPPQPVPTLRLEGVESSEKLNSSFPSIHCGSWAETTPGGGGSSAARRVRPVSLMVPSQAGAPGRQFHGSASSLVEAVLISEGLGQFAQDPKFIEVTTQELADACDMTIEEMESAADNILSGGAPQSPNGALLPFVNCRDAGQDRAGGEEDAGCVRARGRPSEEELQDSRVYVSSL

SMILES: Cc1cc(-c2cc(OC(F)(F)F)ccc2Cl)cc(C)c1OCCCC(=O)O
- EC50 [1]: 94 nM
- Activity [2]: 61%
- EC50 [3]: 16 nM
- Activity [4]: 73%
- EC50 [5]: > 9950 nM
- IC50 [6]: 12800 nM
- IC50 [7]: 9130 nM
- IC50 (Cytochrome P450 3A4): 3280 nM
- IC50 (Cytochrome P450 2D6): > 50000 nM
- IC50 (Cytochrome P450 2C9): > 50000 nM
- clearance [8]: 4.9 mL/min/kg
- Vd [9]: 0.95 L/kg
- half-life [10]: 5.5 h
- bioavailability [11]: 41%
- Cmax [12]: 6.1 µM
- fraction unbound [13]: 0.002

SMILES: O=C(O)CCCOc1c(F)cc(-c2cc(OC(F)(F)F)ccc2F)cc1F
- EC50 [1]: 20 nM
- Activity [2]: 69%
- EC50 [3]: 7 nM
- Activity [4]: 75%
- EC50 [5]: 5410 nM
- Activity [14]: 46%

SMILES: O=C(O)CCCOc1ccc(-c2cc(Oc3cccc(F)c3)ccc2F)cc1
- EC50 [1]: 60 nM
- Activity [2]: 107%
- EC50 [3]: 27 nM
- Activity [4]: 98%
- EC50 [5]: 9460 nM
- Activity [14]: 110%

SMILES: O=C(O)CCc1cc2cc(-c3cccc(OC4CCC4)c3)ccc2o1
- EC50 [1]: 153 nM
- Activity [2]: 65%
- EC50 [3]: 35 nM
- Activity [4]: 66%
- EC50 [5]: 2500 nM
- Activity [14]: 40%

SMILES: O=C(O)CCc1cc2cc(-c3cccc(OC(F)(F)F)c3)ccc2o1
- EC50 [1]: 544 nM
- Activity [2]: 48%
- EC50 [3]: 326 nM
- Activity [4]: 59%
- EC50 [5]: 1390 nM
- Activity [14]: 43%

SMILES: O=C(O)CCCOc1ccc(-c2cc(Oc3cccc(F)c3)ccc2Cl)cc1
- EC50 [1]: 198 nM
- Activity [2]: 80%
- EC50 [3]: 34 nM
- Activity [4]: 70%
- EC50 [5]: 3350 nM
- Activity [14]: 67%

SMILES: O=C(O)CCc1cc2cc(-c3cc(OC(F)(F)F)ccc3F)ccc2o1
- EC50 [1]: 63 nM
- Activity [2]: 73%
- EC50 [3]: 43 nM
- Activity [4]: 75%
- EC50 [5]: 1830 nM
- Activity [14]: 38%
- IC50 [6]: 15100 nM
- IC50 [7]: > 30000 nM
- IC50 (Cytochrome P450 3A4): > 50000 nM
- IC50 (Cytochrome P450 2D6): > 50000 nM
- IC50 (Cytochrome P450 2C9): 38300 nM
- clearance [8]: 20 mL/min/kg
- Vd [9]: 3 L/kg
- half-life [10]: 1.6 h
- bioavailability [11]: 100%
- Cmax [12]: 8.17 µM
- fraction unbound [13]: 0.002
- Activity [15]: Active
- Activity (Mus musculus [16]): Active
- concentration [17]: 24.8 µM
- concentration [18]: 23 µM
- concentration [19]: 33.4 µM
- concentration [20]: 45.1 µM
- Activity (Mus musculus [21]): 40%
- Activity (Mus musculus [22]): 68%

SMILES: COc1cccc(Oc2cccc(-c3ccc(OCCCC(=O)O)cc3)c2)c1
- EC50 [1]: 498 nM
- Activity [2]: 19%
- EC50 [3]: 264 nM
- Activity [4]: 20%
- EC50 [5]: 6310 nM
- Activity [14]: 101%

SMILES: Cc1cc(-c2cc(OC(F)(F)F)ccc2F)ccc1OCCCC(=O)O
- EC50 [1]: 308 nM
- Activity [2]: 52%
- EC50 [3]: 79 nM
- Activity [4]: 37%
- EC50 [5]: 9260 nM
- Activity [14]: 34%

SMILES: CCOc1ccc(Cl)c(-c2ccc(OCCCC(=O)O)cc2)c1
- EC50 [1]: 121 nM
- Activity [2]: 66%
- EC50 [3]: 32 nM
- Activity [4]: 65%
- EC50 [5]: 1130 nM
- Activity [14]: 30%

SMILES: O=C(O)CCCOc1ccc(-c2cc(Oc3ccccc3)ccc2F)cc1
- EC50 [1]: 100 nM
- Activity [2]: 71%
- EC50 [3]: 29 nM
- Activity [4]: 80%
- EC50 [5]: 3590 nM
- Activity [14]: 91%

SMILES: CCOc1ccc(F)c(-c2ccc(OCCCC(=O)O)cc2)c1
- EC50 [1]: 290 nM
- Activity [2]: 71%
- EC50 [3]: 140 nM
- Activity [4]: 58%
- EC50 [5]: 3190 nM
- Activity [14]: 22%

SMILES: O=C(O)CCCOc1ccc(-c2cc(OC(F)(F)F)ccc2Cl)cc1
- EC50 [1]: 57 nM
- Activity [2]: 71%
- EC50 [3]: 9 nM
- Activity [4]: 64%
- EC50 [5]: 1040 nM
- Activity [14]: 40%
- IC50 [6]: > 30000 nM
- IC50 [7]: 17400 nM
- IC50 (Cytochrome P450 3A4): > 50000 nM
- IC50 (Cytochrome P450 2D6): > 50000 nM
- IC50 (Cytochrome P450 2C9): 33000 nM
- clearance [8]: 17 mL/min/kg
- Vd [9]: 1.86 L/kg
- half-life [10]: 1.3 h
- bioavailability [11]: 45%
- Cmax [12]: 2.38 µM
- fraction unbound [13]: 0.049
- IC50 [23]: > 60000 nM

SMILES: Cc1cc(-c2cc(OC(F)(F)F)ccc2Cl)ccc1OCCCC(=O)O
- EC50 [1]: 185 nM
- Activity [2]: 57%
- EC50 [3]: 131 nM
- Activity [4]: 62%
- EC50 [5]: 6720 nM
- Activity [14]: 37%

SMILES: O=C(O)CCCOc1ccc(-c2noc3ccccc23)c(Cl)c1Cl
- Activity [24]: > 11%
- Activity (CHO-K1): <10%
- Activity [25]: Active
- EC50 [1]: 474 nM
- Activity [2]: 24%
- EC50 [3]: 487 nM
- Activity [4]: 29%
- EC50 [5]: > 9950 nM
- clearance [8]: 24 mL/min/kg
- Vd [9]: 5.6 L/kg
- half-life [10]: 3.3 h
- bioavailability [11]: 97%
- Cmax [12]: 4.64 µM
- fraction unbound [13]: 0.042

SMILES: Cc1cc(OC2CCC2)cc(-c2ccc3oc(CCC(=O)O)cc3c2)c1
- EC50 [1]: 68 nM
- Activity [2]: 51%
- EC50 [3]: 28 nM
- Activity [4]: 69%
- EC50 [5]: 2960 nM
- Activity [14]: 51%

SMILES: O=C(O)CCCOc1ccc(-c2cc(OC(F)(F)F)ccc2F)cc1
- EC50 [1]: 946 nM
- Activity [2]: 16%
- EC50 [3]: 432 nM
- Activity [4]: 34%
- EC50 [5]: 4220 nM
- Activity [14]: 91%
